Test results as given in patent publication US10167276B2, “Compounds and methods for inhibiting JAK” (Dizal (Jiangsu) Pharmaceutical Co., Ltd., priority 2015, dated 2019).

Experiments:
[1] = test system: STAT3 phosphorylation in NCI-H1975 cells; experiment: Cellular pSTAT3 assay in NCI-H1975 cells; assay type: cell-based; details: Homo sapiens, 2 hours with compound
Method in brief: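 NCI-H1975 cells (RPMI, 10% FBS) were treated with compound for 2 hours at 37° C., then lysed. Phospho-STAT3 in lysates was quantified by sandwich ELISA (STAT3 capture, phospho-STAT3 detection, HRP secondary, TMB), read at 450 nm.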

[2] = test system: NCI-H1975 tumor xenografts; experiment: In vivo efficacy with osimertinib in the H1975 xenograft model; parameters: species or system mice; details: oral, 18 days
Procedure: (§1) Tumor volume was measured twice a week.
NCI-H1975 cells (a human NSCLC cell line with L858R and T790M mutations in the EGFR gene) tumor cells were implanted subcutaneously in female NCr nude mice (Taconic Laboratories), 3×10^6 cells/mouse.

[3] = test system: PC-9 tumor xenografts; experiment: In vivo efficacy with gefitinib in the PC-9 xenograft model; parameters: species or system mice
Procedure: as §1

[4] = test system: NCI-H1650 tumor xenografts; experiment: In vivo efficacy with gefitinib in the H1650 xenograft model; parameters: species or system mice; details: Example 32 25 or 50 mg/kg BID + gefitinib 6.25 mg/kg QD, oral, 21 days
Procedure: as §1
(§2) Twenty-three days after cell implantation, the mice were randomized into 6 groups (9 mice/group, average tumor volume 257 mm^3, range 205-303 mm^3). […] Drug levels in plasma were measured by LC/MS, using a Linear Ion Trap Quadrupole LC/MS/MS Mass Spectrometer (QTRAP 5500 model 1024945-BB, AB Sciex Instruments), with separation on a Waters Xbridge C18 column.

[5] = test system: LG1049 non-small cell lung cancer PDX tumor xenografts; experiment: In vivo efficacy with osimertinib in the LG1049 xenograft PDX model
Procedure: LG1049 non-small cell lung cancer PDX tumor xenografts were grown subcutaneously in female NSG mice. […] Tumor volume was measured twice a week.
(§3) LG1 049 tumor fragments were implanted subcutaneously in female NSG mice (JAX Stock No. 005557).

[6] = test system: NCI-H1975 tumor xenografts; experiment: In vivo efficacy of intermittent Example 32 dosing schedules with osimertinib in the H1975 xenograft model; parameters: species or system mice; details: oral
Procedure: as §1
NCI-H1975 cells (a human NSCLC cell line with L858R and T790M mutations in the EGFR gene), were implanted subcutaneously in female NCr nude mice (Taconic Laboratories), 3×10^6 cells/mouse.

[7] = test system: pSTAT3 (Y705); experiment: pSTAT3 (Y705) levels in NCI-H1975 tumor lysates (sandwich ELISA); assay type: in vivo, mice; details: increasing dose of Example 32 (12.5 to 50 mg/kg BID), one day of treatment
Procedure: (§4) NCI-H1975 cells (a human NSCLC cell line with L858R and T790M mutations in the EGFR gene) tumor cells were implanted subcutaneously in female NCr nude mice (Taconic Laboratories), 3×10^6 cells/mouse. […] Drug levels in plasma were measured by LC/MS, using a Linear Ion Trap Quadrupole LC/MS/MS Mass Spectrometer (QTRAP 5500 model 1024945-BB, AB Sciex Instruments), with separation on a Waters Xbridge C18 column.

[8] = test system: pSTAT3 (Y705); experiment: pSTAT3 (Y705) levels in PC-9 tumor lysates (Western Blot); assay type: in vivo, mice; details: increasing dose of Example 32 (12.5, 50 mg/kg BID) with gefitinib; 2, 8 and 24 hours after the AM dose, last day
[9] = test system: pSTAT3 (Y705); experiment: pSTAT3 levels in NCI-H1650 tumor lysates (Western Blot); assay type: in vivo, mice; details: Example 32 as single agent and in combination with gefitinib, after one day of treatment
Procedure: as §2

[10] = test system: pSTAT3 (Y705); experiment: pSTAT3 levels in LG1049 tumor lysates (Western Blot); assay type: in vivo, mice; details: Example 32 25 mg/kg BID, 5 days of treatment, 4H after the final dose
From the text: LG1 049 tumor fragments were implanted subcutaneously in female NSG mice (JAX Stock No. 005557). Once tumor volumes reached ˜125-275 mm^3, mice were randomized into 5 groups (10 mice/group, average tumor volume 189 mm^3, range 138-253 mm^3).

[11] = Drug levels in plasma by LC/MS, NCI-H1975 tumor bearing mice; assay type: in vivo; details: increasing dose of Example 32 (12.5 to 50 mg/kg BID), one day of treatment
Procedure: as §4

[12] = test system: pEGFR; experiment: pEGFR levels in LG1049 tumor lysates (Western Blot); assay type: in vivo, mice; details: osimertinib 25 mg/kg QD, 5 days of treatment, 4H after the final dose
From the text: as §3

SMILES | IC50 [1] [µM] | antitumor activity as a single agent ([2]; Example 32 12.5, 25, 50 mg/kg BID) | antitumor activity in combination with osimertinib, compared to osimertinib alone ([2]; Example 32 12.5-50 mg/kg BID + osimertinib 2.5 mg/kg QD) | antitumor activity in combination with gefitinib, compared to gefitinib ([3]; Example 32 12.5 or 50 mg/kg BID + gefitinib 6.25 mg/kg QD, oral, 21 days) | antitumor activity in combination with gefitinib, compared to single agent gefitinib ([3]; gefitinib + 12.5 mg/kg Example 32 daily) | antitumor activity in combination with gefitinib, compared to single agent gefitinib ([3]; gefitinib + 50 mg/kg Example 32 dosed 2 days on/5 days off) | antitumor activity in combination with gefitinib, compared to single agent gefitinib [4] | tumor regression in combination with osimertinib, compared to osimertinib alone ([5]; Example 32 25 mg/kg BID + osimertinib 25 mg/kg QD, oral, 28 days) | antitumor activity as a single agent ([5]; Example 32 25 mg/kg BID, oral, 18 days) | body weight, single agent treatment ([5]; mouse, in vivo) | antitumor activity as a single agent ([6]; Example 32 50 mg/kg BID, 19 days) | antitumor activity in combination with osimertinib, compared to osimertinib alone ([6]; Example 32 12.5-50 mg/kg BID, continuous or intermittent schedules + osimertinib 2.5 mg/kg QD) | pSTAT3 knockdown in tumors [7] | pSTAT3 knockdown in tumors [8] | pSTAT3 knockdown in tumors [9] | pSTAT3 knockdown in tumors [10] | level of Example 32 in plasma [11] | body weight, single agent treatment ([5]; LG1049 tumor bearing mice, weight loss stated to depend on tumor growth) | pEGFR knockdown in tumors [12]
COc1nn(C)cc1Nc1nccc(-c2c[nH]c3c(NC(=O)[C@@H](C)N4CCN(C)CC4)cccc23)n1 [Example 32, (2R)-N-(3-{2-[(3-methoxy-1-methyl-1H-pyrazol-4-yl)amino]pyrimidin-4-yl}-1H-indol-7-yl)-2-(4-methylpiperazin-1-yl)propanamide] | 0.161 | only weak antitumor activity relative to vehicle control treatment | enhanced the antitumor activity of osimertinib | enhanced the antitumor activity of gefitinib | greater activity than single agent gefitinib, but did not quite achieve statistical significance | greater activity than single agent gefitinib, but did not quite achieve statistical significance | enhanced the antitumor activity of gefitinib | enhanced the tumor regression induced by osimertinib | no significant activity relative to vehicle control treatment | significant weight loss | no significant activity relative to vehicle control treatment | enhanced the antitumor activity of osimertinib | dose dependent increase in pSTAT3 knockdown | dose dependent increase in the duration of pSTAT3 knockdown | Knockdown of pSTAT3 was observed | robust knockdown | increasing level of Example 32 in plasma | – | –
C=CC(=O)Nc1cc(Nc2nccc(-c3cn(C)c4ccccc34)n2)c(OC)cc1N(C)CCN(C)C [osimertinib, reference compound] | – | – | – | – | – | – | – | – | – | – | – | – | – | – | – | – | – | lack of significant weight loss | robust knockdown
